In paper doi:10.1101/496141v1 (bioRxiv, 2018):

Legend:
Type in all cases: in vivo, mouse
Tg2576 mice = assay: Contextual fear conditioning in Tg2576 mice; conditions: 7 months old mice, 20 mg/kg i.p. 1h before training; vs Tg2576 SCR
Hdh^Q111/+ knock-in mice = assay: Hdh Q111/+ knock-in mice: striatal caspase-3 and pERK; conditions: 20 mg/kg i.p. for 8 days; twice a day, 7 days; vs SCR
[1] = tested on: ERK phosphorylation (pERK); assay: pERK positive cells in dorsal striatum after i.p. RB5; conditions: single dose 20 mg/kg i.p., n=5 mice/group, vs SCR at 1h

GRKKRRQRRRPPQGGGGGEPRRTEGVGPGVPGEVEMVKGQPFDV [RB5]
contextual fear memory impairment in Tg2576 mice (% of time spent freezing, 24h) (Tg2576 mice): fully rescued
caspase-3 levels in striatum of Hdh^Q111/+ mice (Hdh^Q111/+ knock-in mice): diminished caspase-3 levels
duration of enhancement of ERK phosphorylation in dorsal striatum [1]: up to 6 h
